Each compound was assayed against T1, Human complement C1s enzyme (Homo sapiens, UniProt P09871) (assay: Human C1s enzyme assay). Conditions: human complement C1s enzyme 1.16 nM, substrate Z-L-Lys-SBzl 100 μM, 5 min preincubation; read-out: IC50 (Stars), C1s Inhibiting Activity.
T1 sequence (P09871 438-688 limits assumed): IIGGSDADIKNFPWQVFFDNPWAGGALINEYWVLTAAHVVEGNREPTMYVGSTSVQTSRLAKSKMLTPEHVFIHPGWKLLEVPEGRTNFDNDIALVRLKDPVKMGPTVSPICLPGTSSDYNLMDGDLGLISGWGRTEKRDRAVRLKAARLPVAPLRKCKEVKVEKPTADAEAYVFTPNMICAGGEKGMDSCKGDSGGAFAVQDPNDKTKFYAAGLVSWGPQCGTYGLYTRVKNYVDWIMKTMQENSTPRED
T1 sequence (P09871 16-437 partner limits assumed): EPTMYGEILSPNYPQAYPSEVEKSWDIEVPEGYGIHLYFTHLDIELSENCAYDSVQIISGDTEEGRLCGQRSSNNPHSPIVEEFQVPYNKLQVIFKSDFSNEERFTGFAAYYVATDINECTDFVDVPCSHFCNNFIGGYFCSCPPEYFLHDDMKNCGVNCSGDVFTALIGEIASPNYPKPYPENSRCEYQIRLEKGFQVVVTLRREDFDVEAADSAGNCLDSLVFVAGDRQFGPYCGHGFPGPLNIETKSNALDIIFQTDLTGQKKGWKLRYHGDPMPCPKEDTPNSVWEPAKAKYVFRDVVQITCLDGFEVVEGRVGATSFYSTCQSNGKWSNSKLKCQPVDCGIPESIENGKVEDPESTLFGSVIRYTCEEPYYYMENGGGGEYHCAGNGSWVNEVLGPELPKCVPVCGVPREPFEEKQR
Format: biochemical
Procedure, shortened: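 IC50 from nonlinear regression of reaction rates versus compound concentration, with rates taken from A405 recorded at 30 s intervals over 30 min after adding 100 μM Z-L-Lys-SBzl plus 100 μM DTNB. Enzyme was human C1s purified from serum, 1.16 nM, given 5 min compound preincubation at room temperature, pH 7.5 Tris/1 M NaCl.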

| IC50 [nM] | Structure (SMILES) |
| --- | --- |
| < 100 | Cc1ccc(Oc2ccc(F)c(C(=O)NCC(=O)N3C[C@H](OC(F)F)C[C@H]3C(=O)NCc3cc4cnccc4[nH]3)c2)c(F)c1 [Compound 322, (2S,4R)-N-((1H-pyrrolo[3,2-c]pyridin-2-yl)methyl)-4-(difluoromethoxy)-1-((2-fluoro-5-(2-fluoro-4-methylphenoxy)benzoyl)glycyl) pyrrolidine-2-carboxamide] |
| < 100 | Cc1ccc(Oc2ccnc(C(=O)NCC(=O)N3C[C@H](OC(F)F)C[C@H]3C(=O)NCc3cc4cnccc4[nH]3)c2)c(F)c1 [Compound 323, N-(2-((2S,4R)-2-(((1H-pyrrolo[3,2-c]pyridin-2-yl)methyl)carbamoyl)-4-(difluoromethoxy)pyrrolidin-1-yl)-2-oxoethyl)-4-(2-fluoro-4-methylphenoxy)picolinamide] |
| < 100 | Cc1ccc(Nc2cccc(C(=O)NCC(=O)N3C[C@H](OC(F)F)C[C@H]3C(=O)NCc3cc4cnccc4[nH]3)c2)c(F)c1 [Compound 324, (2S,4R)-N-((1H-pyrrolo[3,2-c]pyridin-2-yl)methyl)-4-(difluoromethoxy)-1-((3-((2-fluoro-4-methylphenyl)amino)benzoyl)glycyl) pyrrolidine-2-carboxamide] |
| < 100 | Cc1ccc(COc2cccc(C(=O)NCC(=O)N3C[C@H](OC(F)F)C[C@H]3C(=O)NCc3cc4cnccc4[nH]3)c2)c(F)c1 [Compound 325, (2S,4R)-N-((1H-pyrrolo[3,2-c]pyridin-2-yl)methyl)-4-(difluoromethoxy)-1-((3-((2-fluoro-4-methylbenzyl)oxy)benzoyl)glycyl)pyrrolidine-2-carboxamide] |
| < 100 | Cc1ccc(Oc2cccc(C(=O)NCC(=O)N3C[C@H](OC(F)F)C[C@H]3C(=O)NCc3cc4cnccc4[nH]3)c2F)cc1 [Compound 327, (2S,4R)-N-((1H-pyrrolo[3,2-c]pyridin-2-yl)methyl)-4-(difluoromethoxy)-1-((2-fluoro-3-(p-tolyloxy)benzoyl)glycyl) pyrrolidine-2-carboxamide] |
| < 100 | Cc1cc(Oc2ccc(C)cc2F)cc(C(=O)NCC(=O)N2C[C@H](OC(F)F)C[C@H]2C(=O)NCc2cc3cnccc3[nH]2)c1 [Compound 328, (2S,4R)-N-((1H-pyrrolo[3,2-c]pyridin-2-yl)methyl)-4-(difluoromethoxy)-1-((3-(2-fluoro-4-methylphenoxy)-5-methylbenzoyl)glycyl)pyrrolidine-2-carboxamide] |
| < 100 | Cc1ccc2c(c1)oc1ccc(C(=O)NCC(=O)N3C[C@H](OC(F)F)C[C@H]3C(=O)NCc3cc4cnccc4[nH]3)cc12 [Compound 332, (2S,4R)-N-((1H-pyrrolo[3,2-c]pyridin-2-yl)methyl)-4-(difluoromethoxy)-1-((7-methyldibenzo[b,d]furan-2-carbonyl)glycyl)pyrrolidine-2-carboxamide] |
| < 100 | Cc1ccc2oc3ccc(C(=O)NCC(=O)N4C[C@H](OC(F)F)C[C@H]4C(=O)NCc4cc5cnccc5[nH]4)cc3c2c1 [Compound 334, (2S,4R)-N-((1H-pyrrolo[3,2-c]pyridin-2-yl)methyl)-4-(difluoromethoxy)-1-((8-methyldibenzo[b,d]furan-2-carbonyl)glycyl)pyrrolidine-2-carboxamide] |
| < 100 | Cc1cccc2c1oc1ccc(C(=O)NCC(=O)N3CCC[C@H]3C(=O)NCc3cc4cnccc4[nH]3)cc12 [Compound 336, (S)-N-((1H-pyrrolo[3,2-c]pyridin-2-yl)methyl)-1-((6-methyldibenzo[b,d]furan-2-carbonyl)glycyl)pyrrolidine-2-carboxamide] |
| < 100 | Cc1ccc(Oc2cccc(C(=O)NCC(=O)N3C[C@H](OC(F)F)C[C@H]3C(=O)NCc3cc4c(s3)CCNC4)c2)c(F)c1 [Compound 338, (2S,4R)-4-(difluoromethoxy)-1-((3-(2-fluoro-4-methylphenoxy)benzoyl)glycyl)-N-((4,5,6,7-tetrahydrothieno[3,2-c]pyridin-2-yl)methyl) pyrrolidine-2-carboxamide] |
| < 100 | Cc1ccc(Oc2cccc(C(=O)NCC(=O)N3C[C@H](OC(F)F)C[C@H]3C(=O)NCc3cc4c(s3)CNCC4)c2)c(F)c1 [Compound 339, (2S,4R)-4-(difluoromethoxy)-1-((3-(2-fluoro-4-methylphenoxy)benzoyl)glycyl)-N-((4,5,6,7-tetrahydrothieno[2,3-c]pyridin-2-yl)methyl) pyrrolidine-2-carboxamide] |
| > 1000 | CN1CCc2cc(CNC(=O)[C@@H]3C[C@@H](OC(F)F)CN3C(=O)CNC(=O)c3ccc4c(c3)Oc3ccccc3S4)sc2C1 [Compound 346, (2S,4R)-4-(difluoromethoxy)-N-((6-methyl-4,5,6,7-tetrahydrothieno[2,3-c]pyridin-2-yl)methyl)-1-((phenoxathiine-3-carbonyl)glycyl) pyrrolidine-2-carboxamide] |
| > 1000 | CN1CCc2sc(CNC(=O)[C@@H]3C[C@@H](OC(F)F)CN3C(=O)CNC(=O)c3ccc4c(c3)Oc3ccccc3S4)cc2C1 [Compound 347, (2S,4R)-4-(difluoromethoxy)-N-((5-methyl-4,5,6,7-tetrahydrothieno[3,2-c]pyridin-2-yl)methyl)-1-((phenoxathiine-3-carbonyl)glycyl) pyrrolidine-2-carboxamide] |
| < 100 | O=C(NCC(=O)N1C[C@H](OC(F)F)C[C@H]1C(=O)NCc1cc2cnccc2[nH]1)c1cc2c(cc1F)Sc1ccccc1O2 [Compound 355, (2S,4R)-N-((1H-pyrrolo[3,2-c]pyridin-2-yl)methyl)-4-(difluoromethoxy)-1-((2-fluorophenoxathiine-3-carbonyl)glycyl)pyrrolidine-2-carboxamide] |
| < 100 | O=C(NCC(=O)N1C[C@H](OC(F)F)C[C@H]1C(=O)NCc1cc2cnccc2[nH]1)c1ccc2c(c1)OCCS2 [Compound 356, (2S,4R)-N-((1H-pyrrolo[3,2-c]pyridin-2-yl)methyl)-4-(difluoromethoxy)-1-((2,3-dihydrobenzo[b][1,4]oxathiine-7-carbonyl)glycyl)pyrrolidine-2-carboxamide] |
| 100 to 1000 | CC(c1cccc(F)c1)c1ccc(C(=O)NCC(=O)N2CC3(C[C@H]2C(=O)NCc2cc4cnccc4[nH]2)OCCO3)s1 (stereo partly drawn) [Compound 357, (8S)-N-((1H-pyrrolo[3,2-c]pyridin-2-yl)methyl)-7-((5-(1-(3-fluorophenyl)ethyl)thiophene-2-carbonyl)glycyl)-1,4-dioxa-7-azaspiro[4.4]nonane-8-carboxamide] |
| < 100 | Cc1ccc(Oc2cccc(C(=O)NCC(=O)N3C[C@H](OC(F)F)C[C@H]3C(=O)NCc3cc4cnccc4[nH]3)c2)s1 [Compound 366, (2S,4R)-N-((1H-pyrrolo[3,2-c]pyridin-2-yl)methyl)-4-(difluoromethoxy)-1-((3-((5-methylthiophen-2-yl)oxy)benzoyl)glycyl)pyrrolidine-2-carboxamide] |
| < 100 | COC[C@H]1C[C@@H](C(=O)NCc2cc3cnccc3[nH]2)N(C(=O)CNC(=O)c2cccc(Oc3ccc(C)cc3F)c2)C1 [Compound 367, (2S,4S)-N-((1H-pyrrolo[3,2-c]pyridin-2-yl)methyl)-1-((3-(2-fluoro-4-methylphenoxy)benzoyl)glycyl)-4-(methoxymethyl)pyrrolidine-2-carboxamide] |
| < 100 | CCc1ccc(Oc2cccc(C(=O)NCC(=O)N3C[C@H](OC(F)F)C[C@H]3C(=O)NCc3cc4cnccc4[nH]3)c2)s1 [Compound 368, (2S,4R)-4-(difluoromethoxy)-1-[2-[[3-[(5-ethyl-2-thienyl)oxy]benzoyl]amino]acetyl]-N-(1H-pyrrolo[3,2-c]pyridin-2-ylmethyl)pyrrolidine-2-carboxamide] |
| < 100 | O=C(NCC(=O)N1C[C@H](OC(F)F)C[C@H]1C(=O)NCc1cc2cnccc2[nH]1)c1ccc2oc3cccc(F)c3c2c1 [Compound 369, (2S,4R)-N-((1H-pyrrolo[3,2-c]pyridin-2-yl)methyl)-4-(difluoromethoxy)-1-((9-fluorodibenzo[b,d]furan-2-carbonyl)glycyl)pyrrolidine-2-carboxamide] |
| < 100 | CCc1ccc(Oc2cc(F)cc(C(=O)NCC(=O)N3C[C@H](OC(F)F)C[C@H]3C(=O)NCc3cc4cnccc4[nH]3)c2)cc1 [Compound 370, (2S,4R)-N-((1H-pyrrolo[3,2-c]pyridin-2-yl)methyl)-4-(difluoromethoxy)-1-((3-(4-ethylphenoxy)-5-fluorobenzoyl)glycyl)pyrrolidine-2-carboxamide] |
| < 100 | CCc1ccc(Oc2cc(F)cc(C(=O)NCC(=O)N3[C@H]4C[C@@]4(C)C[C@H]3C(=O)NCc3cc4cnccc4[nH]3)c2)cc1 [Compound 371, (1S,3S,5S)-N-((1H-pyrrolo[3,2-c]pyridin-2-yl)methyl)-2-((3-(4-ethylphenoxy)-5-fluorobenzoyl)glycyl)-5-methyl-2-azabicyclo[3.1.0]hexane-3-carboxamide] |

From patent US20260062443A1 (ALEXION PHARMACEUTICALS, INC., priority 2022, published 2026)
